Assay results taken from patent publication US20240368133A1, “Compounds for the Treatment of Pain, in Particular, Neuropathic Pain, and/or Other Diseases or Disorders that are Associated with AT2R and/or AT2R Mediated Signaling” (Confo Therapeutics N.V., priority 2021, published 2024).

Columns and labels:
human AT2R fused to Cb23 = human AT2R fused to Cb23 (Homo sapiens, UniProt P50052); assay: Radioligand binding assay, displacement of 125I-[Sar1, Ile8]-Angiotensin II, hAT2R Cb23; conditions: displacement of 125I-[Sar1, Ile8]-Angiotensin II, human AT2R fused to Cb23, HEK-293 cell membrane preparations; read-out: Binding affinity on hAT2R_Cb23 IC50
Sequence of human AT2R fused to Cb23 (P50052 whole entry, looked up, the tested form may be a part): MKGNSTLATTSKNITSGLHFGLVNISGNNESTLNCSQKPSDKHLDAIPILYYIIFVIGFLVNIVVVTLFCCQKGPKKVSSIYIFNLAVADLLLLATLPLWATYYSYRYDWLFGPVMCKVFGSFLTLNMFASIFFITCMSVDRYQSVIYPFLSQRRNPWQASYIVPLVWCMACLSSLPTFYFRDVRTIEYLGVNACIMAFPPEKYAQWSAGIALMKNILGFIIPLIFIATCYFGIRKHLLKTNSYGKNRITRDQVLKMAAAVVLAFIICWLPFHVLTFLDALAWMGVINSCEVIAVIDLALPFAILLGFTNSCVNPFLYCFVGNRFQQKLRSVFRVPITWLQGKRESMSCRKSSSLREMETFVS
Procedure, shortened: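 Membranes from HEK-293 cells expressing human AT2R fused to Cb23 were incubated with 0.05 nM 125I-[Sar1, Ile8]-Angiotensin II in 100 μL buffer (50 mM Tris, 5 mM MgCl2, 1 mM EDTA, 0.1% BSA, pH 7.4) for one hour at 25° C. Ligands were tested as eight-point dose-response curves in duplicate, with C21 and Angiotensin II as references.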

human AT1R = human AT1R (Homo sapiens (Human), UniProt P30556); assay: Counterscreen radioligand binding assay, displacement of 125I-[Sar1, Ile8]-Angiotensin II, hAT1R WT; conditions: for inhibition at 1 µM / inhibition at 10 µM: 125I-[Sar1, Ile8]-Ang II, semi-quantitative score; for inhibition at 1 µM: compound at 1 μM, read-out: % Displaced radioligand at 1 μM; for inhibition at 10 µM: compound at 10 μM, read-out: % Displaced radioligand at 10 μM; for IC50: HEK-293 cell membranes, read-out: Binding affinity On hAT1R IC50
Sequence of human AT1R (P30556 whole entry): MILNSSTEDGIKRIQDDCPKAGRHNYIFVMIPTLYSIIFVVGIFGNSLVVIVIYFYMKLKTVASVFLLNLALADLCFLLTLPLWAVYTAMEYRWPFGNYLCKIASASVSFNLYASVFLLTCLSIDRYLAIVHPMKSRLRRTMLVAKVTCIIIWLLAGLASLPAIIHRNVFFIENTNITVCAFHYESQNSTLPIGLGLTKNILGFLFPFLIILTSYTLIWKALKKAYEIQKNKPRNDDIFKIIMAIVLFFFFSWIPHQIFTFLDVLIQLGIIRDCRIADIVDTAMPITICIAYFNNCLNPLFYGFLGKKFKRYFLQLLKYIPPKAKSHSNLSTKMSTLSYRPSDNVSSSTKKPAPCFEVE
Procedure, shortened: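 Compounds displaced 0.05 nM 125I-[Sar1, Ile8]-Ang II from human AT1R in HEK-293 membranes (1 h, 25° C; Tris/MgCl2/EDTA/BSA buffer, pH 7.4). Readout was filtration and scintillation counting, with non-specific binding set by 10 μM [Sar1]-Ang II. Values are % displacement at 1 μM and […], or IC50 from eight-point four-parameter fits.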

Row | IC50 (human AT2R fused to Cb23) [µM] | inhibition at 1 µM (human AT1R) [%] | inhibition at 10 µM (human AT1R) [%] | IC50 (human AT1R) [µM] | SMILES
1 | 0.022 | < 30 | < 30 |  | Cc1cc(CC(C)C)cc(N2CCN(Cc3nc4ccccc4s3)CC2)c1-c1nn[nH]n1 [Compound A-135]
2 | 5.57 | < 30 | < 30 |  | CC(C)Cc1ccc(-c2nn[nH]n2)c(N2CCN(Cc3cc(=O)n4ccccc4n3)CC2)c1 [Compound A-76, 2-[[4-[5-isobutyl-2-(2H-tetrazol-5-yl)-phenyl]piperazin-1-yl]methyl]pyrido-[1,2-a]pyrimidin-4-one]
3 | 2.03 | < 30 | < 30 | 45 | CC(C)Cc1ccc(-c2nn[nH]n2)c(N2CCN(Cc3ccc(C(F)(F)F)cn3)CC2)c1 [Compound A-85, 1-[5-isobutyl-2-(2H-tetrazol-5-yl)-phenyl]-4-[[5-(trifluoromethyl)-2-pyridyl]methyl]-piperazine]
4 | 2.78 | < 30 | 30 to 50 | 11.7 | CC(C)Oc1cc(N2CCN(Cc3nc4ccccc4s3)CC2)c(-c2nn[nH]n2)cc1C1CC1 [Compound A-121, 2-[[4-[4-cycloprop-yl-5-isopropoxy-2-(2H-tetrazol-5-yl)-phenyl]piperazin-1-yl]methyl]-1,3-benzothiazole]
5 | 4.42 | < 30 | < 30 |  | c1ccc2sc(CN3CCN(c4cc(OC5CC5)ccc4-c4nn[nH]n4)CC3)nc2c1 [Compound A-52, 2-[[4-[5-(cyclopropoxy)-2-(2H-tetrazol-5-yl)phenyl]piperazin-1-yl]methyl]-1,3-benzothiazole]
6 | 8.31 | < 30 | < 30 |  | CC(C)Oc1ccc(-c2nn[nH]n2)c(N2CCC(Cc3nc4ccccc4n3C)CC2)c1 [Compound A-25, 2-[[1-[5-isopropoxy-2-(2H-tetrazol-5-yl)phenyl]-4-piperidyl]methyl]-1-methyl-benzimid-azole]
7 | 10.5 | < 30 |  | 28.8 | CC(C)Oc1ccc(-c2nn[nH]n2)c(CN2CCN(c3nc4ccccc4s3)CC2)c1 [Compound A-50, 2-[4-[[5-isoprop-oxy-2-(2H-tetrazol-5-yl)phenyl]meth-yl]piperazin-1-yl]-1,3-benzothiazole]
8 | 2.37 | < 30 | < 30 |  | CCOc1ccc(-c2nn[nH]n2)c(N2CCN(Cc3nc4ccccc4n3C)CC2)c1 [Compound A-23, 2-[[4-[5-ethoxy-2-(2H-tetrazol-5-yl)-phenyl]piperazin-1-yl]methyl]-1-meth-yl-benzimidazole]
9 | 2.27 | < 30 | < 30 | 39.7 | FC(F)COc1ccc(-c2nn[nH]n2)c(N2CCN(Cc3nc4ccccc4s3)CC2)c1 [Compound A-55, 2-[[4-[5-(2,2-difluoroethoxy)-2-(2H-tetrazol-5-yl)-phenyl]piperazin-1-yl]methyl]-1,3-benzothiazole]
10 | 6.79 | < 30 | < 30 |  | CC(C)Oc1cc(F)c(-c2nn[nH]n2)c(N2CCN(Cc3nc4ccccc4c(=O)[nH]3)CC2)c1 [Compound A-151, 2-[[4-[3-fluoro-5-isopropoxy-2-(2H-tetrazol-5-yl)phen-yl]piperazin-1-yl]-methyl]-3H-quin-azolin-4-one]
11 | 4.75 | < 30 | < 30 |  | CCNc1ccc(-c2nn[nH]n2)c(N2CCN(Cc3nc4ccccc4s3)CC2)c1 [Compound A-59, 3-[4-(1,3-benzothi-azol-2-ylmethyl)-piperazin-1-yl]-N-ethyl-4-(2H-tetrazol-5-yl)aniline]
12 | 2.54 | < 30 | < 30 | 30 | CCc1ccc(-c2nn[nH]n2)c(N2CCN(Cc3nc4ccccc4s3)CC2)c1 [Compound A-45, 2-[[4-[5-ethyl-2-(2H-tetrazol-5-yl)-phenyl]piperazin-1-yl]methyl]-1,3-benzothiazole]

The next lines start with the compound.

Row | SMILES | IC50 (human AT2R fused to Cb23) [µM] | inhibition at 1 µM (human AT1R) [%] | inhibition at 10 µM (human AT1R) [%] | IC50 (human AT1R) [µM]
13 | CCCOc1ccc(C(=O)NS(=O)(=O)CC)c(N2CCN(Cc3nc4ccccc4s3)CC2)c1 [Compound A-42, 2-[4-(1,3-benzothiazol-2-ylmethyl)piperazin-1-yl]-N-ethylsulfonyl-4-propoxy-benzamide] | 17.7 | < 30 | 30 to 50 | 26.3
14 | CC(C)Cc1cc(F)c(-c2nn[nH]n2)c(N2CCN(Cc3cccnn3)C(C(C)C)C2)c1 (centres unmarked) [Compound A-179, 3-[[4-[3-fluoro-5-isobutyl-2-(2H-tetrazol-5-yl)phenyl]-2-isopropyl-piperazin-1-yl]methyl]pyridazine] | 0.953 | < 30 | < 30 | 
15 | CC(C)Cc1ccc(-c2nn[nH]n2)c(C2CCN(Cc3cccnn3)C2)c1 (centres unmarked) [Compound A-235, 3-[[3-[5-isobutyl-2-(2H-tetrazol-5-yl)-phenyl]pyrrolidin-1-yl]methyl]pyrid-azine] | 6.89 | < 30 | < 30 | 
16 | CC(C)Cc1ccc(-c2nn[nH]n2)c(N2CCN(Cc3cccnn3)[C@@H](C)C2)c1F [Compound A-176, 3-[[(2S)-4-[2-fluoro-3-isobutyl-6-(2H-tetrazol-5-yl)phenyl]-2-methyl-piperazin-1-yl]methyl]pyridazine] | 0.0287 | < 30 | < 30 | 
17 | CC(C)Cc1cc(F)c(-c2nn[nH]n2)c(N2CCN(Cc3cccnn3)C(C)(C)C2)c1 [Compound A-182, 3-[[4-[3-fluoro-5-isobutyl-2-(2H-tetrazol-5-yl)phenyl]-2,2-dimethyl-piperazin-1-yl]methyl]pyridazine] | 0.0186 | < 30 | < 30 | 
18 | CC(C)Cc1cc(F)c(-c2nn[nH]n2)c(N2CC3CC2CN3Cc2cccnn2)c1 (centres unmarked) [Compound A-189, 2-[3-fluoro-5-isobutyl-2-(2H-tetrazol-5-yl)phen-yl]-5-(pyridazin-3-ylmethyl)-2,5-di-azabicyclo[2.2.1]-heptane] | 2.65 | < 30 | < 30 | 
19 | c1ccc2sc(CN3CCN(c4cc(NCC5CC5)cnc4-c4nn[nH]n4)CC3)nc2c1 [Compound A-149, 5-[4-(1,3-benzo-thiazol-2-ylmethyl)-piperazin-1-yl]-N-(cyclopropylmeth-yl)-6-(2H-tetrazol-5-yl)pyridin-3-amine] | 8.4 | < 30 | < 30 | 
20 | CC(C)Cc1cnc(-c2nn[nH]n2)c(N2CCN(Cc3cccnn3)[C@@H](C)C2)c1 [Compound A-177, 3-[[(2S)-4-[5-isobutyl-2-(2H-tetrazol-5-yl)-3-pyridyl]-2-methyl-piperazin-1-yl]methyl]pyridazine] | 0.585 | < 30 | < 30 | 
21 | CC(C)Cc1cc(F)c(-c2nn[nH]n2)c(N2CCN(Cc3cccnn3)CC2C)c1 (centres unmarked) [Compound A-180, 3-[[4-[3-fluoro-5-isobutyl-2-(2H-tetrazol-5-yl)phenyl]-3-methyl-piperazin-1-yl]methyl]pyridazine] | 0.00395 | < 30 | < 30 | 
22 | CC(C)Cc1cc(N2CCN(Cc3cccnn3)CC2)c(-c2nn[nH]n2)cc1F [Compound A-163, 3-[[4-[4-fluoro-5-isobutyl-2-(2H-tetrazol-5-yl)phen-yl]piperazin-1-yl]-methyl]pyridazine] | 3.32 | < 30 | < 30 | 
23 | CC(C)Cc1cc(C2CC2)c(-c2nn[nH]n2)c(N2CCN(Cc3cccnn3)CC2)c1 [Compound A-169, 3-[[4-[3-cycloprop-yl-5-isobutyl-2-(2H-tetrazol-5-yl)phen-yl]piperazin-1-yl]-methyl]pyridazine] | 0.0253 | < 30 | < 30 | 
24 | Cc1cnc(C(C)N2CCN(c3cc(CC(C)C)cc(F)c3-c3nn[nH]n3)C[C@@H]2C)s1 (stereo partly drawn) [Compound A-226, 2-[1-[(2S)-4-[3-fluoro-5-isobutyl-2-(2H-tetrazol-5-yl)phenyl]-2-methyl-piperazin-1-yl]ethyl]-5-methyl-thiazole] | 0.0372 | < 30 | < 30 | 
25 | CC(C)Cc1cc(F)c(-c2nn[nH]n2)c(N2CC3CN(Cc4cccnn4)CC3C2)c1 (centres unmarked) [Compound A-233, 5-[3-fluoro-5-isobutyl-2-(2H-tetrazol-5-yl)phenyl]-2-(pyridazin-3-ylmethyl)-1,3,3a,4,6,6a-hexahydropyrrolo[3,4-c]pyrrole] | 1.31 | < 30 | < 30 | 
26 | CC(C)Cc1ccc(-c2nn[nH]n2)c(N2CCN(Cc3cc(C4CC4)on3)CC2)c1 [Compound A-102, 5-cyclopropyl-3-[[4-[5-isobutyl-2-(2H-tetrazol-5-yl)phenyl]piperazin-1-yl]methyl]isoxazole] | 7.07 | < 30 | < 30 | 
27 | COc1cnc(CN2CCN(c3cc(CC(C)C)cc(F)c3-c3nn[nH]n3)CC2)cc1OC [Compound A-207, 1-[(4,5-dimethoxy-2-pyridyl)methyl]-4-[3-fluoro-5-isobutyl-2-(2H-tetrazol-5-yl)phenyl]piperazine] | 1.21 | < 30 | < 30 | 
